Type in all cases: functional
Experiment [1] in a line: Cytotoxicity against human CEM13 cells assessed as cell death after 72 hrs by MTT assay. Background: Tetrazolium assays rely on reduction of a dye to a coloured formazan, in cell work by metabolically active cells.
In a further experiment the test system is MT4. Kind of experiment: Cytotoxicity against human MT4 cells assessed as cell death after 72 hrs by MTT assay.
For another experiment, the system named is U-937. Kind of experiment: Cytotoxicity against human U937 cells assessed as cell death after 72 hrs by MTT assay.

In the case of `CC(C)C1(N=[N+]=[N-])Oc2cc3oc(=O)ccc3cc2C1=O` (configuration not stated), the CTD50 in experiment [1] amounted to 49 µM; in the experiment on MT4, 50 µM; in the experiment with U-937, 53 µM.
The corresponding values for `CC(C)C1(n2cc(-c3ccccc3)nn2)Oc2cc3oc(=O)ccc3cc2C1=O` (configuration not stated) are 51 µM, 70 µM and 31 µM.
Taken in the same sequence, the figures for `COc1c(C(C)C)oc2cc3oc(=O)ccc3cc12` [PEUCEDANIN] were 81 µM, 67 µM and 58 µM.
The corresponding values for `CC(C)C1(n2cc(CNC(=O)c3cc(O)c(O)c(O)c3)nn2)Oc2cc3oc(=O)ccc3cc2C1=O` (configuration not stated) are 11 µM, 12 µM and 20 µM.
For the compound `COc1cccc2c1C(=O)c1c(O)c3c(c(O)c1C2=O)C[C@@](O)(C(=O)CO)C[C@@H]3O[C@H]1C[C@H](N)[C@H](O)[C@H](C)O1` [DOXORUBICIN], the values for the CTD50 (in experiment [1]; in the experiment with MT4; in the experiment with U-937) were 7.4 µM, 3.4 µM and 0.2 µM, respectively.
Taken in the same sequence, the figures for `CC(C)C1(n2cc(-c3ccc4c(c3)OCCO4)nn2)Oc2c(cc3ccc(=O)oc3c2CN2CCN(C)CC2)C1=O` (configuration not stated) were 10 µM, 13 µM and 10 µM.
The corresponding values for `COc1cc(C(=O)NCc2cn(C3(C(C)C)Oc4cc5oc(=O)ccc5cc4C3=O)nn2)ccc1O` (configuration not stated) are 9 µM, 10 µM and 8 µM.
The corresponding values for `CC(C)C1(n2cc(CNC(=O)c3ccc(N)cc3O)nn2)Oc2cc3oc(=O)ccc3cc2C1=O` (configuration not stated) are 17 µM, 13 µM and 24 µM.
As for `COc1ccc(-c2cn(C3(C(C)C)Oc4cc5oc(=O)ccc5cc4C3=O)nn2)c(OC)c1OC` (configuration not stated), the CTD50 in experiment [1] was determined as 32 µM; in the experiment on MT4 it was 27 µM; in the experiment with U-937, 45 µM.
Taken in the same sequence, the figures for `CC(C)C1(n2cc(-c3cc([N+](=O)[O-])ccc3O)nn2)Oc2c(cc3ccc(=O)oc3c2CN2CCN(C)CC2)C1=O` (configuration not stated) were 11 µM, 11 µM and 17 µM.
For the compound `CC(C)C1(n2cc(-c3cc([N+](=O)[O-])ccc3O)nn2)Oc2cc3oc(=O)ccc3cc2C1=O` (configuration not stated), the results for the CTD50 (in experiment [1]; in the experiment on MT4; in the experiment on U-937) were 21 µM, 11 µM and 20 µM, respectively.
`CC(C)C1(n2cc(-c3ccc4c(c3)OCCO4)nn2)Oc2cc3oc(=O)ccc3cc2C1=O` (configuration not stated): the CTD50 came to 15 µM in experiment [1], 11 µM in the experiment with MT4 and 8 µM with U-937.
Taken in the same sequence, the figures for `CC(C)C1(N=[N+]=[N-])Oc2c(cc3ccc(=O)oc3c2CN2CCN(C)CC2)C1=O` (configuration not stated) were 58 µM, 62 µM and 45 µM.
On to `COc1ccc(/C=C/C(=O)NCc2cn(C3(C(C)C)Oc4c(cc5ccc(=O)oc5c4CN4CCN(C)CC4)C3=O)nn2)c(OC)c1` (configuration not stated), for which the CTD50 was 16 µM in experiment [1], 13 µM in the experiment with MT4 and 16 µM in the experiment with U-937.
For the compound `COc1cc(OC)cc(C(=O)NCc2cn(C3(C(C)C)Oc4cc5oc(=O)ccc5cc4C3=O)nn2)c1` (configuration not stated), the values for the CTD50 (in experiment [1]; with MT4; in the experiment on U-937) were 18 µM, 19 µM and 45 µM, respectively.
The corresponding values for `CC(C)C1(n2cc(-c3ccccc3)nn2)Oc2c(cc3ccc(=O)oc3c2CN2CCN(C)CC2)C1=O` (configuration not stated) are 32 µM, 33 µM and 25 µM.
Taken in the same sequence, the figures for `COc1cc(-c2cn(C3(C(C)C)Oc4cc5oc(=O)ccc5cc4C3=O)nn2)ccc1OCc1ccccc1` (configuration not stated) were 25 µM, 28 µM and 28 µM.
The corresponding values for `COc1ccc(/C=C/C(=O)NCc2cn(C3(C(C)C)Oc4cc5oc(=O)ccc5cc4C3=O)nn2)c(OC)c1` (configuration not stated) are 30 µM, 22 µM and 25 µM.
As for `CC(C)C1(n2cc(CNC(=O)c3cc(O)cc(O)c3)nn2)Oc2cc3oc(=O)ccc3cc2C1=O` (configuration not stated), the CTD50 worked out at 16 µM in experiment [1], 22 µM in the experiment with MT4 and 23 µM in the experiment on U-937.

Values taken from ChEMBL document CHEMBL3596170, “Synthesis of 1H-1,2,3-triazole linked aryl(arylamidomethyl) - dihydrofurocoumarin hybrids and analysis of their cytotoxicity” (2015).
